Assay [1] relates to H3K4 dimethylation (H3K4me2) in T24 cells. Nature of the assay: Detection of in-cell H3K4 dimethylation (AlphaLisa). Format: cell-based. Conditions: Homo sapiens, T-24, 120 h, five days, read-out: In vitro whole cell potency in T24 cells, H3K4Me2 (IC50). The protocol: (iii) Detection of In-Cell H3K4 Dimethylation
T24 cells were seeded into a 96-well plate at 400 cells/well in 150 μl medium (McCoy 5A containing 10% FBS, 100 μg/ml Normocin, and 50 μg/ml Gentamycin, Invitrogen). A HP D300 digital dispenser was used to dose cells with DMSO or test compounds across a 10-point range of concentrations (high dose of 10 μM), and cultures were grown in a humidified 5% CO2 incubator at 37° C. After five days, plates were removed from incubator, media was aspirated, and the cells washed in PBS. Cell lysis, histone extraction, and detection of H3K4 dimethylation (H3K4me2) were performed using an AlphaLisa kit according to the manufacturer's instructions (Perkin Elmer). Signal was measured using an Envision plate reader.

In assay [2] the test system is MV4-11 cells. Kind of assay: Cell proliferation assay (ATPlite). Format: cell-based. Conditions: Homo sapiens, MV4-11, 120 h; MV-411 cells, five days; read-out: In vitro whole cell potency in MV-411 cells, (IC50). In outline: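 MV4-11 cells at 1,000 cells/well in Alpha-MEM with 10% FBS were dosed over a 10-point range (top 10 μM). Cells were grown 5 days at 37° C, 5% CO2. Viability was read as ATPlite luminescence.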

In assay [3] the target is T1, WDR5 (Homo sapiens (Human), UniProt P61964). Nature of the assay: Surface Plasmon Resonance (SPR) assay, KD and residence time. Format: binding. Conditions: surface plasmon resonance (SPR); read-out: WDR5 binding affinity (KD).
The target of assay [4] is T1, WDR5. Conditions: previous studies, J. Med. Chem. 2010, 53: 5179-5185; J. Am. Chem. Soc. 2013, 135: 669-682; read-out: Ki, binding affinity to WDR5; cited from earlier work.

As for `CN1CCN(c2cc(F)c(-c3cnc(N4CCOCC4)nc3)cc2NC(=O)c2c[nH]c(=O)cc2C(F)(F)F)CC1` [Example 3, N-(4-fluoro-2-(4-methylpiperazin-1-yl)-5-(2-morpholinopyrimidin-5-yl)phenyl)-6-oxo-4-(trifluoromethyl)-1,6-dihydropyridine-3-carboxamide], the IC50 in assay [1] was determined as 882 nM; in assay [2], 749 nM.

Turning to `C[C@@H]1CN(c2cc(F)c(-c3cnc(N4CCOCC4)nc3)cc2NC(=O)c2c[nH]c(=O)cc2C(F)(F)F)CCN1C` [Example 6, (R)—N-(2-(3,4-dimethylpiperazin-1-yl)-4-fluoro-5-(2-morpholinopyrimidin-5-yl)phenyl)-6-oxo-4-(trifluoromethyl)-1,6-dihydropyridine-3-carboxamide], the IC50 in assay [1] was 1070 nM; in assay [2] it was 828 nM.

Turning to `C[C@H]1CN(c2cc(F)c(-c3cnc(N4CCOCC4)nc3)cc2NC(=O)c2c[nH]c(=O)cc2C(F)(F)F)CCN1C` [Example 7, (S)—N-(2-(3,4-dimethylpiperazin-1-yl)-4-fluoro-5-(2-morpholinopyrimidin-5-yl)phenyl)-6-oxo-4-(trifluoromethyl)-1,6-dihydropyridine-3-carboxamide], the values for the IC50 in assay [1] and in assay [2] were 166 nM and 51 nM, respectively.

As for `C[C@@H]1CN(c2cc(F)c(-c3cnc(N4CCOCC4)nc3)cc2NC(=O)c2c[nH]c(=O)cc2C(F)(F)F)C[C@H](C)N1C` [Example 8, N-(4-fluoro-5-(2-morpholinopyrimidin-5-yl)-2-((3R,5S)-3,4,5-trimethylpiperazin-1-yl)phenyl)-6-oxo-4-(trifluoromethyl)-1,6-dihydropyridine-3-carboxamide], the IC50 in assay [1] was 144 nM.

Regarding `C[C@@H]1CN(c2cc(F)c(-c3ccc(OCC4CC4)nc3)cc2NC(=O)c2c[nH]c(=O)cc2C(F)(F)F)C[C@H](C)N1C` [Example 39, N-[5-[6-(cyclopropylmethoxy)pyridin-3-yl]-4-fluoro-2-[(3S,5R)-3,4,5-trimethylpiperazin-1-yl]phenyl]-6-oxo-4-(trifluoromethyl)-1H-pyridine-3-carboxamide], the IC50 in assay [1] was found to be 626 nM; in assay [2], 213 nM.

Consider `C[C@@H]1CN(c2ncc(-c3cc(NC(=O)c4ccc(F)cc4C(F)(F)F)c(N4CCN(C)[C@@H](C)C4)cc3F)cn2)CCO1` [Example 456, 4-fluoro-N-[4-fluoro-2-[(3S)-3,4-dimethylpiperazin-1-yl]-5-[2-[(2R)-2-methylmorpholin-4-yl]pyrimidin-5-yl]phenyl]-2-(trifluoromethyl)benzamide], for which the Kd in assay [3] was 1.08 nM. In assay [2], the IC50 amounted to 89 nM.

On to `C[C@@H]1CN(c2cc(F)c(C3=CCN(C(=O)OC4(C)CCC4)CC3)cc2NC(=O)c2c[nH]c(=O)cc2C(F)(F)F)C[C@H](C)N1C` [Example 470, (1-methylcyclobutyl) 4-[2-fluoro-5-[[6-oxo-4-(trifluoromethyl)-1H-pyridine-3-carbonyl]amino]-4-[(3R,5S)-3,4,5-trimethylpiperazin-1-yl]phenyl]-3,6-dihydro-2H-pyridine-1-carboxylate], for which the Kd in assay [3] came out at 4.27 nM. The IC50 in assay [2] was found to be 56 nM.

For `C[C@@H]1CN(c2cc(F)c(C3=CCCN(C(=O)OC4(C)CCC4)C3)cc2NC(=O)c2c[nH]c(=O)cc2C(F)(F)F)C[C@H](C)N1C` [Example 471, (1-methylcyclobutyl) 5-[2-fluoro-5-[[6-oxo-4-(trifluoromethyl)-1H-pyridine-3-carbonyl]amino]-4-[(3R,5S)-3,4,5-trimethylpiperazin-1-yl]phenyl]-3,6-dihydro-2H-pyridine-1-carboxylate], the Kd in assay [3] was determined as 0.494 nM. The IC50 in assay [2] was 78 nM.

`C[C@@H]1CN(c2cc(F)c(C3=CCN(C(=O)OC4(C)CCC4)C3)cc2NC(=O)c2c[nH]c(=O)cc2C(F)(F)F)C[C@H](C)N1C` [Example 472, (1-methylcyclobutyl) 3-[2-fluoro-5-[[6-oxo-4-(trifluoromethyl)-1H-pyridine-3-carbonyl]amino]-4-[(3R,5S)-3,4,5-trimethylpiperazin-1-yl]phenyl]-2,5-dihydropyrrole-1-carboxylate]: the Kd in assay [3] amounted to 0.407 nM. Besides, in assay [2], the IC50 was 104 nM.

`C[C@@H]1CN(c2cc(F)c(-c3nc(C(=O)N(C)CC4CC4)cs3)cc2NC(=O)c2c[nH]c(=O)cc2C(F)(F)F)C[C@H](C)N1C` [Example 483, N-(cyclopropylmethyl)-2-[2-fluoro-5-[[6-oxo-4-(trifluoromethyl)-1H-pyridine-3-carbonyl]amino]-4-[(3R,5S)-3,4,5-trimethylpiperazin-1-yl]phenyl]-N-methyl-1,3-thiazole-4-carboxamide]: in assay [3], the Kd turned out to be 3.97 nM. Also, the IC50 in assay [2] came to 24 nM.

Regarding `C[C@@H]1CN(c2ccc(-c3cc(NC(=O)c4c[nH]c(=O)cc4C(F)F)c(N4C[C@@H](C)N(C)[C@@H](C)C4)cc3F)cn2)CCO1` [Example 508, 4-(difluoromethyl)-N-[4-fluoro-5-[6-[(2R)-2-methylmorpholin-4-yl]pyridin-3-yl]-2-[(3R,5S)-3,4,5-trimethylpiperazin-1-yl]phenyl]-6-oxo-1H-pyridine-3-carboxamide], the Kd in assay [3] came out at 2.66 nM. Besides, the IC50 in assay [2] came out at 73 nM.

On to `C[C@@H]1CN(c2cc(F)c(-c3csc(C(=O)N(C)CC4CC4)n3)cc2NC(=O)c2c[nH]c(=O)cc2C(F)(F)F)C[C@H](C)N1C` [Example 532, N-(cyclopropylmethyl)-4-[2-fluoro-5-[[6-oxo-4-(trifluoromethyl)-1H-pyridine-3-carbonyl]amino]-4-[(3R,5S)-3,4,5-trimethylpiperazin-1-yl]phenyl]-N-methyl-1,3-thiazole-2-carboxamide], for which the Kd in assay [3] was 0.694 nM. The IC50 in assay [2] worked out at 22 nM.

Take `CC(C)OC(=O)N1CC=C(c2cc(NC(=O)c3c[nH]c(=O)cc3C(F)(F)F)c(N3C[C@@H](C)N(C)[C@@H](C)C3)cc2F)C1` [Example 600, Propan-2-yl 3-[2-fluoro-5-[[6-oxo-4-(trifluoromethyl)-1H-pyridine-3-carbonyl]amino]-4-[(3R,5S)-3,4,5-trimethylpiperazin-1-yl]phenyl]-2,5-dihydropyrrole-1-carboxylate]: in assay [3], the Kd came to 0.779 nM. Further, the IC50 in assay [2] was determined as 52 nM.

Consider Ac-A-R-A-NH2, for which, in assay [4], the Ki is 120000 nM.

The values above are taken from patent US11319299B2, “Substituted carboxamides as inhibitors of WDR5 protein-protein binding” (PROPELLON THERAPEUTICS INC., priority 2016, dated 2022).
